# Results reported in US4626533A, “7-(2-thienylacetamido)-3-acylaminomethyl-cephalosporins” (Biogal Gyogyszergyar, priority 1983, dated 1986).
# Test system: Gram-negative strains
# Assay: MIC determination, Gram-negative strains
# Assay type: cell-based
# Details: range over Gram-negative strains
# Description: The examinations were carried out by using the bacteria strains listed hereinbelow: Gram-negative strains E. coli 35034 Klebsiella 52001 Klebsiella ATCC 1200 S. hartford 10063 P. mirabilis 60012 P. morganii 63002 P. rettgeri 65002 P. inconstans 67001 P. aeruginosa ATCC 27853
row,SMILES,MIC
1,"CC(=O)NCC1=C(C(=O)O)N2C(=O)C(NC(=O)CSc3nnc(-c4ccccc4)o3)[C@H]2SC1 (stereo partly drawn) [Example 8, 7-(2-phenyl-1,3,4-oxadiazole-5-ylthio)acetylamino-3-acetylaminomethylceph-3-em-4-carboxylic acid]",> 100 µg/mL
2,"Cn1nnnc1SCC(=O)NC1C(=O)N2C(C(=O)O)=C(CNC(=O)c3c(Cl)cccc3Cl)CSC12 (stereo not drawn) [Example 14, 7-(1-methyl-1H-tetrazole-5-ylthio)acetamido-3-(2,6-dichlorobenzamino)methylceph-3-em-4-carboxylic acid]",> 100 µg/mL
3,"O=C(CSc1nnc(-c2ccccc2)o1)NC1C(=O)N2C(C(=O)O)=C(CNC(=O)c3c(Cl)cccc3Cl)CS[C@H]12 (stereo partly drawn) [Example 15, 7-(2-phenyl-1,3,4-oxadiazole-5-ylthio)acetamido-3-(2,6-dichlorobenzoylamino)methylceph-3-em-4-carboxylic acid]",> 100 µg/mL
